Columns and labels:
[1] = system: Mongolian gerbil cerebral infarction model; assay: Mongolian gerbil cerebral infarction model (acetic acid-induced thrombus): infarction area percentage and neurological symptom; format: in vivo; settings: for Infarction area: evaluated 24 h; for Infarction area / Neurological scores: mean ± SE, n=6; for Neurological scores: score 0-4 at 24 h; for improvement rate of the infarction area percentage: 10 mg/kg, administration initiated 1 hour after the initiation of ischemia
Description: Anesthesia was induced to a male Mongolian gerbil (body weight 55 to 65 g) by inhalation of 5% isoflurane (trade name Escain, Mylan Inc.), and maintained with 1 to 1.5% isoflurane. The Mongolian gerbil was fixed in a dorsal position, and the neck was dehaired and then disinfected with 70% ethanol. After median incision of the neck, the right common carotid artery was detached, clamped to block the blood flow temporarily, and coated with 100% acetic acid by 30 reciprocating motions so as to produce a thrombus. The blood vessel was reopened after 10 min of the blockage of the blood flow to transfer the thrombus by the blood stream into the brain to make it ischemic and generate cerebral infarction. The operating field was closed with an instant adhesive (trade name Aron Alpha (Krazy Glue), Toagosei Co., Ltd.) and disinfected with 70% ethanol.
Twenty four hours after the initiation of the operation neurological symptoms were observed as an indicator for cerebral infarction. Many types of neurological symptoms specific to cerebral infarction, such as extension of a hindlimb or circling to one direction, have been reported. Applying a modified evaluation method of the method proposed by Longa, et al. (Stroke 1989; 20:84-91) postoperative neurological symptoms were evaluated as per: no deficit, 0; extension of limb, 1; circling to one direction, 2; incline posture, 3; diminished motion, 4.
With respect to statistical analysis, for multiple comparisons was conducted firstly one-way analysis of variance (ANOVA) and then a Bonferroni test was conducted, if significant difference is detected. Significant difference was positively recognized with significance level 5% (P<0.05). All the results are expressed in mean±standard error.
After the evaluation of neurological symptoms according to the above method, the animal was decapitated under anesthesia with isoflurane. The cranial bone was exfoliated of skin and opened, and, after scission of optic nerve, the brain was extirpated and dipped in a physiological saline solution to remove attached body hairs, etc. The extirpated brain was placed in a brain matrix (RBM-1000C, ASI Instruments) to carry out coronal slicing from the frontal pole at thickness of 2 mm. The slices were dipped in 2% 2,3,5-triphenyl-2H-tetrazolium chloride (TTC), and incubated for staining at 37° C. for 30 min in a CO2 incubator. The colorless TTC is reduced by hydrogen liberated by the action of dehydrogenase contained in a normal cell converting to dark red colored water-insoluble 1,3,5-triphenylformazan (TPF), so that the normal cell is stained. Unstained area (white area) was defined as an infarction area. Meanwhile, the corpus callosum, which is commissural fibers connecting the right and left cerebral hemispheres, is not stained and is white, and therefore image processing for the analyses as described below was conducted excluding the corpus callosum.
After staining images of the brain slices were taken by a digital camera under a stereoscopic microscope. For analysis of the infarction area percentage, an image analysis software Image J (Version 1.4) was used. Full, excluding the corpus callosum, images of the taken 2nd, 3rd, and 4th brain slice images were converted to grayscale. From the grayscale images a histogram for the whole brain as the object scope was obtained showing in the ordinate the frequency of occurrence (frequency) at certain brightness, and showing in the abscissa the brightness (0 to 255). The sum from 0 to 255 was defined as the area size of the whole brain, and the sum from 160 to 219 was defined as the area size of the infarction area. Then the infarction area percentage was determined according to the following formula using the total area size of the infarction areas and the total area size of the whole brain, of the 3 brain slice images. Statistical analysis was conducted as above. […]

[2] = H-ORAC (hydrophilic oxygen radical absorbance capacity) assay; format: biochemical; settings: sodium salt aqueous solution, phosphate buffer pH 7.4
Description: To study the free radical scavenging activity of a triprenyl phenol compound, the following H-ORAC (hydrophilic oxygen radical absorbance capacity) assay, and modified H-ORAC (mH-ORAC) assay were conducted.
SMTP compounds evaluated by H-ORAC were used respectively in a form of a sodium salt aqueous solution, and the compounds evaluated by mH-ORAC were used respectively in a form of an acetone solution.
In H-ORAC a test compound was diluted appropriately with a buffer solution (75 mM phosphate buffer solution, pH 7.4) and used for measurement. In mH-ORAC a test compound was diluted appropriately by a 50% (v/v) acetone solution, prepared by diluting an acetone solution with water, to prepare a solution of 40-fold the final concentration. […] As for the reference material Trolox, 500 μM/buffer solution was diluted appropriately with a buffer solution.
To a 96-well microplate (transparent, flat bottom, black wall) 50 μL of a test compound solution or a Trolox solution was placed, and additionally 100 μL of a fluorescein 140 nM/buffer solution as a fluorescent substance was added (final concentration 70 nM), followed by incubation at 37° C. for […].
As a free radical generator, 50 μL of a 48 mM/buffer solution of 2,2′-azobis(amidinopropane)dihydrochloride was added (final concentration 12 mM), and fluorescence intensity at fluorescence wavelength of 535 nm with excitation wavelength of 485 nm was measured at 2 min intervals for 90 min. The calibration curve was prepared between the Trolox final concentrations of 5 to 15 μM. The measurement was conducted by changing the concentration with n=3, and plotted on a diagram with time on the abscissa and the fluorescence intensity on the ordinate. Therewith evaluation was made using the value obtained by reducing the area under the curve for the blank from the area under the curve for the sample. The result was expressed as an equivalent to Trolox.

cerebral blood flow = assay: Cerebral blood flow by laser-Doppler in mouse cerebral infarction model; format: in vivo; settings: mean ± SE, n=3
Description: The improvement effectiveness of SMTP-7 and alteplase on the cerebral blood flow was compared using the mouse cerebral infarction model.
SMTP-7 and alteplase were prepared as in Example 2. SMTP-7 and alteplase were administered in an amount of 10 mg/kg into the femoral vein 1 hour after the initiation of ischemia in a mouse cerebral infarction model, wherein 10% was administered by a bolus administration, and the rest by continuous administration over 30 min. Three mice were used for each condition.
The cerebral blood flow was measured at 6 time points, namely before the initiation of ischemia, immediately after the initiation of ischemia, and after the completion of the drug administration 0 hour (immediately after the completion), 1 hour, 3 hours, and 24 hours.
The cerebral blood flow measurement was conducted by cutting the head skin of a mouse to expose the cranial bone, and measuring the blood flow of the whole brain surfaces by a laser-Doppler apparatus (moorFLPI, Moor Instruments Ltd, UK). The analysis was conducted using moorFLPI (Version 2.1) by rating percentage (%) relative to the value before the initiation of ischemia of each group.

[3] = 1 mg/kg i.v., administration initiated 1 hr after ischemia
[4] = 10 mg/kg i.v., administration initiated 1 hr after ischemia
[5] = 10 mg/kg i.v., administration initiated 3 hr after ischemia
[6] = 10 mg/kg i.v., administration initiated 6 hr after ischemia
[7] = 10 mg/kg 1 hour after ischemia, 0 hr after completion of administration
[8] = 10 mg/kg 1 hour after ischemia, 1 hr after completion of administration
[9] = 10 mg/kg 1 hour after ischemia, 3 hr after completion of administration
[10] = 10 mg/kg 1 hour after ischemia, 24 hr after completion of administration
[11] = immediately after initiation of ischemia (before drug administration), group later given 10 mg/kg
[12] = 0.01 mg/kg i.v., administration initiated 1 hr after ischemia
[13] = 0.1 mg/kg i.v., administration initiated 1 hr after ischemia

Work on `CC(C)=CCC/C(C)=C/CC[C@@]1(C)Oc2c(c(O)cc3c2CN(CCC[C@@H](C(=O)O)N2Cc4c(cc(O)c5c4O[C@](C)(CC/C=C(\C)CCC=C(C)C)[C@@H](O)C5)C2=O)C3=O)C[C@@H]1O` [SMTP-7] yielded an Infarction area [1, 3] of 11.4 ± 2.69%, a Neurological scores [1, 3] of 2.67 ± 0.33 and an Infarction area [1, 4] of 7.01 ± 0.56 %. It also gave a Neurological scores [1, 4] of 1.50 ± 0.67, an Infarction area [1, 5] of 5.90 ± 0.36 % and a Neurological scores [1, 5] of 1.67 ± 0.61. The Infarction area [1, 6] was 7.93 ± 1.64 %, the Neurological scores [1, 6] was 2.00 ± 0.45 and the “improvement rate of the infarction area percentage” value [1] was 65.7%. The “free radical scavenging activity, Trolox equivalent” value [2] was 2.08 ± 0.13 molTE/mol, the “cerebral blood flow relative to the value before the initiation of ischemia” value (cerebral blood flow; [7]) was 43.74 ± 12.67% and the “cerebral blood flow relative to the value before the initiation of ischemia” value (cerebral blood flow; [8]) was 44.48 ± 12.59%. For the same molecule, the “cerebral blood flow relative to the value before the initiation of ischemia” value (cerebral blood flow; [9]) was 48.90 ± 15.89%, the “cerebral blood flow relative to the value before the initiation of ischemia” value (cerebral blood flow; [10]) was 76.01 ± 9.71% and the “cerebral blood flow relative to the value before the initiation of ischemia” value (cerebral blood flow; [11]) was 34.17 ± 5.22%.
For `CC(C)=CCC/C(C)=C/CCC1(C)Oc2c(c(O)cc3c2CN(C(Cc2c[nH]c4ccccc24)C(=O)O)C3=O)CC1O` (centres unmarked) [SMTP-6], the “free radical scavenging activity, Trolox equivalent” value [2] was 3.73 ± 0.42 molTE/mol.
alteplase [reference compound] showed an Infarction area [1, 12] of 11.2 ± 2.74%, a Neurological scores [1, 12] of 2.67 ± 0.56 and an Infarction area [1, 13] of 9.67 ± 2.35%. The Neurological scores [1, 13] was 2.00 ± 0.77, the Infarction area [1, 4] was 5.43 ± 1.33 % and the Neurological scores [1, 4] was 0.17 ± 0.17. The Infarction area [1, 5] was 11.0 ± 3.61%, the Neurological scores [1, 5] was 1.33 ± 0.67 and the Infarction area [1, 6] was 13.8 ± 2.40%. For the same molecule, the Neurological scores [1, 6] was 3.17 ± 0.48, the “improvement rate of the infarction area percentage” value [1] was 78.9% and the “cerebral blood flow relative to the value before the initiation of ischemia” value (cerebral blood flow; [7]) was 56.45 ± 14.70%. For the same molecule, the “cerebral blood flow relative to the value before the initiation of ischemia” value (cerebral blood flow; [8]) was 73.49 ± 20.33%, the “cerebral blood flow relative to the value before the initiation of ischemia” value (cerebral blood flow; [9]) was 66.83 ± 11.10% and the “cerebral blood flow relative to the value before the initiation of ischemia” value (cerebral blood flow; [10]) was 71.63 ± 6.06%. For the same molecule, the “cerebral blood flow relative to the value before the initiation of ischemia” value (cerebral blood flow; [11]) was 27.30 ± 2.35%.

— patent USRE49351E1, “Cytoprotective agent” (Biogen MA Inc., priority 2009, dated 2023)
